# Reference: patent publication US9701689B2, “Substituted pyridines and pyridazines as CCR10 receptor inhibitors” (KYOWA HAKKO KIRIN CO., LTD., priority 2012, dated 2017)
# Molecular target: T1, human CCR10 (Homo sapiens, UniProt P46092)
# T1 construct: expressed in transfected cells; host or cells: KJMGER8 cells (Namalwa cell-derived line), beta-estradiol-induced; hCCR10G16 cells
# T1 sequence (P46092 1-362): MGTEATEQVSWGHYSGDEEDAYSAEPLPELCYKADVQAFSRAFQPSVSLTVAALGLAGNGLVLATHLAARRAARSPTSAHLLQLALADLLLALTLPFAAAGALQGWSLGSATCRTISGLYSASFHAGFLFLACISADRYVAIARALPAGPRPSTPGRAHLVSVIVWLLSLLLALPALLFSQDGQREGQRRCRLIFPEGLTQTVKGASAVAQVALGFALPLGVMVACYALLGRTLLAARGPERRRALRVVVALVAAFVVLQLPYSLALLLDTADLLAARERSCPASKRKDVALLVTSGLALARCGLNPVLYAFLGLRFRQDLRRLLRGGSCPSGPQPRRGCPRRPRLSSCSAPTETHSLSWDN
# Experiment: CCR10 antagonistic effect: calcium assay of human CCR10 (CTACK-induced increase of intracellular calcium in hCCR10G16 cells)
# Type: cell-based
# Conditions: at a concentration of not more than 1000 nmol/L; human CCR10-expressing hCCR10G16 cells, 300 nmol/L CTACK added; read-out: inhibition of increase in the calcium ion concentration
# Protocol: [Experimental Example 1] CCR10 Antagonistic Effect
# (1) Preparation of Human CCR10-Inducible Expression Plasmid
# A CCR10-inducible expression plasmid was prepared according to a known method [Analytical Biochemistry, 2006, vol. 400, page 163]. A DNA encoding human CCR10 was obtained by PCR. Using human chromosome DNA (100 ng; manufactured by Clontech) as a template, synthetic DNA having the sequences depicted in SEQ ID NOs: 1 and 2 as a human CCR10 cDNA specific primer, and Pyrobest DNA Polymerase (manufactured by TAKARA SHUZO CO. LTD.) as an enzyme, a DNA encoding human CCR10 was obtained by PCR. As a buffer for PCR, the buffer attached to the enzyme to be used, which was diluted 10-fold with deionized water, was used. Using Thermal Cycler DNA Engine (manufactured by MJ Research), PCR was performed by 35 cycles of reactions composed of an incubation at 94° C. for 30 sec, at an anneal temperature of 58° C. for 30 sec, and at 72° C. for 1 min after treating at 90° C. for 2 min.
# The amplified PCR fragment was cleaved with HindIII and NotI, then a human CCR10 DNA fragment was recovered by the agarose gel electrophoresis method. The fragment was incorporated between the corresponding restriction enzyme sites (HindIII-NotI) of an inducible expression vector to construct a human CCR10-inducible expression plasmid.
# Using a primer specific to the sequence of plasmid (synthetic DNA having the sequences shown in SEQ ID NOs: 3 and 4), the sequence of human CCR10 DNA region was determined. For the determination of the base sequence, DNA Sequencer 377 (manufactured by Perkin Elmer. Co.) and a reaction kit (ABI Prism (registered trade mark) BigDye (registered trade mark) Terminator Cycle Sequencing Ready Reaction kit: manufactured by Applied Biosystems) were used. The sequence of human CCR10 DNA was identical with the sequence (NM 016602) registered in GenBank.
# (2) Preparation of Human CCR10 Expressing Cell for Calcium Assay
# Cells for detecting signals from human CCR10 in calcium assay were prepared. According to a known method [Analytical.Biochemistry (Analy Biochem), 2006, vol. 400, page 163], human CCR10-inducible expressing cells whose host cell is KJMGER8 cell (Namalwa cell-derived cell line) were prepared. Human CCR10-inducible expression plasmid produced above and Gα16 expression plasmid were co-transfected into the KJMGER8 cells by the electroporation method [Cytotechnology, 1990, vol. 3, page 133], whereby the signals from human CCR10 could be detected by calcium assay (hereinafter to be referred to as hCCR10G16 cell). A Ga16 expression plasmid was produced by incorporating human Ga16 DNA into expression vector pAMoh (WO 03/087366). Expression of human CCR10 was induced by cultivating hCCR10G16 cells in the presence of 10 nmol/L β-estradiol (manufactured by Sigma Ltd.) for 24 hr.
# (3) Calcium Assay of Human CCR10
# Cells expressing human CCR10 induced by the above-mentioned method were suspended in RPMI1640 medium (manufactured by Invitrogen), and adjusted to a cell density of 2×10^6 cells/mL. The cells were blended with an equivalent volume of a loading buffer prepared according to the attached protocol of Fluo-3 calcium assay kit (manufactured by Molecular Devices Corporation), and incubated at 37° C. for several dozen minutes. This mixture was dispensed to a 384 well clear-bottom plate (manufactured by Corning Incorporated) at 40 μL/well. To this plate was added a solution of the test compound in dimethyl sulfoxide (DMSO), which was diluted 37-fold with RPMI1640 medium, at 5 μL/well, and the mixture was incubated at 37° C. for 30 min. 300 nmol/L human recombinant CTACK (manufactured by R&D Systems, Inc.) diluted with RPMI1640 medium containing 1 w/v % bovine serum albumin (manufactured by Sigma Ltd.) was added at 5 μL/well and, variation of intracellular calcium ion concentration for about 5 min after the addition was measured by a screening apparatus (FDSS; manufactured by Hamamatsu Photonics K.K.). […]
row,inhibition at up to 1 µM,Structure (SMILES)
1,≥ 50%,"N#Cc1ccc(C(F)(F)F)cc1Nc1c(C(=O)N2CCC(c3ccc(F)cc3)CC2)cnc(S(N)(=O)=O)c1Cl [Compound 257, 3-chloro-4-[2-cyano-5-(trifluoromethyl)phenylamino]-5-[4-(4-fluorophenyl)piperidine-1-carbonyl]pyridine-2-sulfonamide]"
2,≥ 50%,"CCCNC(=O)NS(=O)(=O)c1cc(NCc2ccccc2)c(C(=O)N2CCC(c3ccc(F)cc3)CC2)cn1 [Compound 16, 4-(benzylamino)-5-[4-(4-fluorophenyl)piperidine-1-carbonyl]-N-(propylcarbamoyl)pyridine-2-sulfonamide]"
3,≥ 50%,"Cc1cc(F)ccc1Nc1cc(S(=O)(=O)NCC(=O)N2CCOCC2)ncc1C(=O)N1CCC(c2ccc(F)cc2)CC1 [Compound 130, 4-(4-fluoro-2-methylphenylamino)-5-[4-(4-fluorophenyl)piperidine-1-carbonyl]-N-(2-morpholino-2-oxoethyl)pyridine-2-sulfonamide]"
4,≥ 50%,"CCOC(=O)NS(=O)(=O)c1cc(Nc2cc(C)c(Cl)cc2C)c(C(=O)N2CCC(c3ccc(F)cc3)CC2)cn1 [Compound 19, ethyl 4-(4-chloro-2,5-dimethylphenylamino)-5-[4-(4-fluorophenyl)piperidine-1-carbonyl]pyridin-2-ylsulfonylcarbamate]"
5,≥ 50%,"Cc1cccc(Nc2c(C(=O)N3CCN(c4ccccc4Cl)CC3)cnc(S(N)(=O)=O)c2Cl)c1 [Compound 206, 3-chloro-5-[4-(2-chlorophenyl)piperazine-1-carbonyl]-4-(m-tolylamino)pyridine-2-sulfonamide]"
6,≥ 50%,"CCOC(=O)NS(=O)(=O)c1cc(Nc2ccc(Cl)cc2C)c(C(=O)N2CCC(c3ccc(F)cc3)CC2)cn1 [Compound 173, ethyl 4-(4-chloro-2-methylphenylamino)-5-[4-(4-fluorophenyl)piperidine-1-carbonyl]pyridin-2-ylsulfonylcarbamate]"
7,≥ 50%,"Cc1cc(F)ccc1Nc1cc(S(=O)(=O)Nc2ncccn2)ncc1C(=O)N1CCC(c2ccc(F)cc2)CC1 [Compound 145, 4-(4-fluoro-2-methylphenylamino)-5-[4-(4-fluorophenyl)piperidine-1-carbonyl]-N-(pyrimidin-2-yl)pyridine-2-sulfonamide]"
8,≥ 50%,"CCNC(=O)NS(=O)(=O)c1cc(Nc2cc(C)c(Cl)cc2Cl)c(C(=O)N2CCC(c3ccc(F)cc3)CC2)cn1 [Compound 164, 4-(2,4-dichloro-5-methylphenylamino)-N-(ethylcarbamoyl)-5-[4-(4-fluorophenyl)piperidine-1-carbonyl]pyridine-2-sulfonamide]"
9,≥ 50%,"Cc1ccc(Nc2c(C(=O)N3CCC(c4ccc(F)cc4)CC3)cnc(S(=O)(=O)Nc3cc(C)ns3)c2C)cc1 [Compound 300, 5-[4-(4-fluorophenyl)piperidine-1-carbonyl]-3-methyl-N-(3-methylisothiazol-5-yl)-4-(p-tolylamino)pyridine-2-sulfonamide]"
10,≥ 50%,"Cc1c(S(=O)(=O)Nc2ccon2)ncc(C(=O)N2CCC(c3ccc(F)cc3)CC2)c1NCCc1ccccc1 [Compound 222, 5-[4-(4-fluorophenyl)piperidine-1-carbonyl]-N-(isoxazol-3-yl)-3-methyl-4-(phenethylamino)pyridine-2-sulfonamide]"
11,≥ 50%,"Cc1cccc(Nc2cc(S(N)(=O)=O)ncc2C(=O)N2CCC(c3ccc(F)cc3)CC2)c1C [Compound 65, 4-(2,3-dimethylphenylamino)-5-[4-(4-fluorophenyl)piperidine-1-carbonyl]pyridine-2-sulfonamide]"
12,≥ 50%,"NS(=O)(=O)c1cc(Nc2cc(F)ccc2Cl)c(C(=O)N2CCC(c3ccc(F)cc3)CC2)cn1 [Compound 70, 4-(2-chloro-5-fluorophenylamino)-5-[4-(4-fluorophenyl)piperidine-1-carbonyl]pyridine-2-sulfonamide]"
13,≥ 50%,"NS(=O)(=O)c1ncc(C(=O)N2CCC(c3ccc(F)cc3)CC2)c(Nc2ccc3c(c2)CCC3=O)c1Cl [Compound 243, 3-chloro-5-[4-(4-fluorophenyl)piperidine-1-carbonyl]-4-(1-oxo-2,3-dihydro-1H-inden-5-ylamino)pyridine-2-sulfonamide]"
14,≥ 50%,"COCCNS(=O)(=O)c1cc(Nc2ccc(F)cc2C)c(C(=O)N2CCC(c3ccc(F)cc3)CC2)cn1 [Compound 112, 4-(4-fluoro-2-methylphenylamino)-5-[4-(4-fluorophenyl)piperidine-1-carbonyl]-N-(2-methoxyethyl)pyridine-2-sulfonamide]"
15,≥ 50%,"Cc1c(S(=O)(=O)Nc2ccon2)ncc(C(=O)N2CCC(c3ccc(F)cc3)CC2)c1Nc1cc(Cl)ccc1F [Compound 271, 4-(5-chloro-2-fluorophenylamino)-5-[4-(4-fluorophenyl)piperidine-1-carbonyl]-N-(isoxazol-3-yl)-3-methylpyridine-2-sulfonamide]"
16,≥ 50%,"Cc1cc(F)ccc1Nc1cc(S(=O)(=O)NC(=O)NC(C)C)ncc1C(=O)N1CCC(c2ccc(F)cc2)CC1 [Compound 171, 4-(4-fluoro-2-methylphenylamino)-5-[4-(4-fluorophenyl)piperidine-1-carbonyl]-N-(isopropylcarbamoyl)pyridine-2-sulfonamide]"
17,≥ 50%,"CCc1c(S(=O)(=O)Nc2ccon2)ncc(C(=O)N2CCC(c3ccc(F)cc3)CC2)c1Nc1ccccc1C [Compound 287, 3-ethyl-5-[4-(4-fluorophenyl)piperidine-1-carbonyl]-N-(isoxazol-3-yl)-4-(o-tolylamino)pyridine-2-sulfonamide]"
18,≥ 50%,"Cc1cc(F)ccc1Nc1cc(S(=O)(=O)Nc2cc(C(C)(C)C)on2)ncc1C(=O)N1CCC(c2ccc(F)cc2)CC1 [Compound 159, N-(5-tert-butylisoxazol-3-yl)-4-(4-fluoro-2-methylphenylamino)-5-[4-(4-fluorophenyl)piperidine-1-carbonyl]pyridine-2-sulfonamide]"
19,≥ 50%,"Cc1cc(Cl)ccc1Nc1cc(S(N)(=O)=O)ncc1C(=O)N1CCC(c2ccc(F)cc2)CC1 [Compound 20, 4-(4-chloro-2-methylphenylamino)-5-[4-(4-fluorophenyl)piperidine-1-carbonyl]pyridine-2-sulfonamide]"
20,≥ 50%,"NS(=O)(=O)c1ncc(C(=O)N2CCC(c3ccc(F)cc3)CC2)c(Nc2c(F)cccc2F)c1Cl [Compound 182, 3-chloro-4-(2,6-difluorophenylamino)-5-[4-(4-fluorophenyl)piperidine-1-carbonyl]pyridine-2-sulfonamide]"
